According to patent US6407125B1, “Pharmacological agent and method of treatment” (Novactyl, Inc., priority 1995, dated 2002):

Tests used:
[1] = target: recombinant MPS-1 (Homo sapiens, UniProt P42677); assay: Gel shift assay of zinc dependent binding of recombinant MPS-1 to DNA; 65Zn removal from MPS-1; assay type: biochemical
Excerpt: MPS-1 is a ubiquitous tumor marker and cell growth stimulator and is described in detail in the inventor's U.S. Pat. No. Re.35,585 (U.S. Pat. No. 5,243,041). MPS-1 has one zinc finger domain of the type CCCC. […] This is detected by a change in the electrophoretic mobility of MPS-1 under non-denaturing conditions. These experiments indicate that picolinic acid and derivatives should remove zinc and denature various types of zinc finger or zinc ring proteins, whether known or heretofore undiscovered, including viral proteins such as nucleocapsid p7 proteins, as will be explained further. Furthermore, the inventor has determined that any chemical compound, whether known or heretofore undiscovered, that will remove the zinc (or other metal) and denature the proteins or that will form a ternary complex (protein-zinc-chelator) can be effective as a therapeutic agent or as an autologous immune response modulator, as will be discussed in greater detail below.

[2] = Topical treatment of sunburn; assay type: in vivo; conditions: 1%, 5% or 10% picolinic acid in absorption base; over 25 cases
Excerpt: Furthermore, it is believed that the response of cells to stress, such as exposure to UV radiation, chemicals, bacteria, parasites or fungi is associated with the induction of heat shock proteins.

[3] = system: WI-38 cells; assay: Growth of WI-38 cells (total cell protein, cell number); assay type: cell-based; conditions: 3 mM picolinic acid
Experimental: Cells were plated at 1.5×10^5 cells/60-mm dish; 48 hours later, the medium was removed, and new media with or without 3 mM picolinic acid was added. Total cell protein was determined at the indicated times; each point is the average of triplicate measurements from 2 cultures.
In initial experiments to examine the effects of fusaric acid on cell growth and viability, WI-38 and LoVo cells were incubated for 24 to 72 hours in medium with or without various doses of fusaric acid (0.1-1 mM). The growth of both WI-38 and LoVo cells was inhibited by 500 μM fusaric acid in a time and dose dependent manner, as shown below in Table 2.

[4] = system: metastatic colon cancer; assay: Oral treatment of metastatic colon cancer, case; assay type: in vivo, human
Excerpt: The inventor has determined that systemic administration of picolinic acid or derivatives is effective in controlling various cancers with reduced side effects by mechanisms heretofore unknown or unanticipated. […] The patient's condition improved. Based upon known mechanisms of action, the inventor anticipated that the patient may become anemic due to the concomitant chelation of iron. However, the inventor discovered a completely novel response. Over the course of several weeks, the patent's hematocrit increased. The inventor determined that the increase in hemoglobin along with the clinical improvement, is a result of synergistic mechanisms. First, the chelation of the iron suppressed tumor angiogenesis and induce killer T-cell formation. Furthermore, the chelated iron appears to be actively and usefully transported to bone marrow to support hematopoesis.
The subject is a person with metastatic colon cancer. The subject presented with an enlarged lymph node in the neck. The lymph node was putting pressure on nerves causing a drooping of the subject's right eyelid. […] Treatment was initiated with 500 mg of picolinic acid in capsule form, by mouth twice daily. […] An aspiration needle biopsy of the lymph node was attempted but had to be repeated due to the fact that the pathologist was withdrawing necrotic tissue from the lymph node. […] The protocol includes increasing the dosage up to 2000 mg per day, or more, if required.

[5] = system: papilloma virus; assay: Topical treatment of ulcerative papilloma virus lesion in a horse; assay type: in vivo; conditions: for diameter of the lesion: initially 3 inch
Experimental: The lesion was progressive, with total loss of hair over the area. The diagnosis was viral disease, i.e. papilloma virus, complicated by fungal infection. The horse was treated with conventional local antibiotic and chemical therapies for about four months.
An aqueous solution of 10% picolinic acid in deionized water was applied every other day with a cotton swab over and around the lesion. The treatment continued for 45 days. The course of the regression of the viral lesion was as follows: […]

[6] = system: plantar wart; assay: Topical treatment of virus-induced plantar ulcer; assay type: in vivo, human
Experimental: A patient with recurrent plantar wart of about 2 cm in diameter was treated with topical picolinic acid. The patient, a pathologist who had difficulty walking because of the pain caused by the ulcer, had experimented with numerous medications for more than three months without any significant results prior to treatment with the picolinic acid. It is relevant to note that many plantar ulcers are transformed into malignant tumors.
The patient was treated with a solution of 10% picolinic acid in deionized water for one week. […] They then were treated with 10% picolinic acid in Aquaphor. The ointment was placed on the ulcer and on a patch. The patch was replaced every 24 hours.

[7] = system: metastatic breast cancer; assay: Topical treatment of metastatic breast cancer to skin and bone of the skull; assay type: in vivo, human; conditions: 10% in Aquaphor, changed twice daily, approximately 35 days
Experimental: A person with metastatic breast cancer to the skin and bone of the skull was treated with a topical preparation of 10% picolinic acid in Aquaphor. The preparation was applied to the cancerous lesions and to a bandage and changed twice daily. The multiple cancer lesions were approximately 1 to 1.5 cm in diameter.

[8] = Nasal spray treatment of upper respiratory infection; assay type: in vivo, human; conditions: nasal spray 3 mM in physiologic saline, evening and bedtime, upon arising
Experimental: A college student presented with nasal congestion, slight fever, cough and sore throat. The subject began treatment with nasal spray containing 3 mM picolinic acid in physiologic saline vehicle. The subject used one or two sprays in each nostril after evening meal and before bedtime.

[9] = system: osteosarcoma; assay: Oral treatment of osteosarcoma in canine; assay type: in vivo, dog; conditions: 500 mg capsules twice daily, six days after initiating treatment
Experimental: The subject animal was a Bichon Frise dog that was diagnosed by a veterinarian with osteosarcoma. The osteosarcoma had invaded the dog's mandible and was encroaching on the lower portion of the orbit. The veterinarian began treatment with picolinic acid. The dog was administered 500 mg of picolinic acid, in capsules, twice daily. Six days after initiating treatment the veterinarian documented that the osteosarcoma had reduced approximately 40% in size. One week later the veterinarian observed that the tumor looked “necrotic”. The veterinarian incised the skin above the tumor and removed fluid from the center of the tumor.

[10] = cited from earlier work
[11] = system: normal cells; conditions: longer exposure; most normal cells; cited from earlier work

With `O=C(O)c1ccccn1` [picolinic acid, 2-Pyridine carboxylic acid] the “removal of radioactive 65Zn from MPS-1” value ([1]; CCCC zinc finger, change in electrophoretic mobility, non-denaturing conditions) was “remove radioactive 65Zn from MPS-1”, the “zinc dependent binding of recombinant MPS-1 to DNA” value ([1]; gel shift assays) was “inhibit the zinc dependent binding of recombinant MPS-1 to DNA” and the treatment of sunburn [2] was “successfully used”. The “toxic effects on WI-38 cells” value ([3]; up to 72 hours of treatment) was “no toxic effects”, the “growth of WI-38 cells” value ([3]; within 24 hours) was “inhibited” and the “reversibility of growth inhibition” value ([3]; within 24 hours of removal of the agent) was “reversible”. For the same compound, the “estimated reduction in mass of cancerous lymph node” value ([4]; 500 mg capsule by mouth twice daily, within 72 hours, palpation) was “over 50%”, the tolerability ([4]; 500 mg picolinic acid twice daily) was “tolerating treatment well” and the hematocrit ([4]; oral picolinic acid, over several weeks) was “increased”. The lesion appearance ([5]; 10% aqueous solution every other day, after 10 days) was “central necrosis”, the “diameter of the lesion” value ([5]; 10% aqueous solution, after 20 days) was “approximately 2 inches” and the “diameter of the lesion” value ([5]; 10% aqueous solution, after 30 days) was “about 1 inch”. For the same compound, the lesion outcome ([5]; 10% aqueous solution, at 45 days) was “resolved with some scar tissue”, the recurrence ([5]; three additional months after treatment) was “without evidence of recurring disease” and the plantar ulcer appearance ([6]; 10% solution in deionized water for one week) was “Central necrosis was noted”. For the same compound, the plantar ulcer outcome ([6]; then 10% in Aquaphor on ulcer and patch, additional three weeks) was “the plantar ulcer resolved”, the cancer lesion outcome [7] was “resolved with scar tissue forming” and the upper respiratory symptoms [8] was “no fever or sore throat symptoms”. The “reduction in size of osteosarcoma” value [9] was “approximately 40%”, the solubility in water [10] was “readily soluble in water” and the actinic lesion outcome (10% in Aquaphor daily, approximately three weeks, two patients) was “completely cured”. The “effects on normal skin” value (in vivo) was “without any effects on normal skin” and the “toxic effects in normal cells” value [11] was “no toxic effects”.
